Assays:
[1] = system: airway obstruction induced by histamine aerosol; assay: Plethysmographic investigation on conscious guinea pigs with airway obstruction induced by inhalation of histamine aerosol; format: in vivo, guinea pig; settings: oral, 0.3% strength histamine aerosol
[2] = system: isolated strips of lung and the isolated trachea of guinea pigs; assay: Inhibition of contractions induced by calcium ionophore A 23 187 in isolated strips of lung and isolated trachea of guinea pigs; settings: guinea pig
Protocol: (§1) The compounds of the formula I and their salts additionally show a pronounced inhibitory action on platelet activating factor (PAF) and the leukotrienes, which are likewise released as spasmogenic mediators from the mast cells during the course of the immediate anaphylactic reaction. It was possible to antagonize the bronchospasm induced in anesthetized rats by administration of PAF by, for example, intravenous administration of the compound of Example 3 with a ED50 of 1-3 mg/kg. The said products of the state of the art, such as oxatomide, ketotiphen and terfenadine, have no action in this test. The contractions induced by calcium ionophore A 23 187 in isolated strips of lung and the isolated trachea of guinea pigs were inhibited by, for example, the compound of Example 3 with an IC50 of 0.1-0.3 μg/ml. Since calcium ionophore A 23 187 stimulates 5-lipoxygenase and thus promotes the formation of spasmogenic leukotrienes, a possible interpretation of the result of this experiment is that the compounds according to the invention are potent leukotriene inhibitors.

bradykinin = assay: Antagonistic action towards bradykinin: inhibition of bradykinin-induced bronchospasm in anesthetized guinea pigs (Konzett-Rössler); format: in vivo, guinea pig; settings: Cavia porcellus, iv, anesthetized guinea pigs, dose reducing induced spasm to one half; read-out: Inhibitory action towards bradykinin (ED50)
Protocol: (§2) 1. Antagonistic action towards the allergy mediators (on anesthetized guinea pigs)
(§3) The test substances were administered intravenously in aqueous solution injected in a volume of 1 ml/kg.

[3] = Acute toxicity, mortality within 7 days after single i.p. administration to NMRI mice; settings: in vivo, ip, mouse i.p.
Protocol: The LD50 values were determined by the standard method of the mortality occurring within 7 days after a single intraperitoneal (i.p.) administration to NMRI mice (NMRI=Naval Medical Research Institute).

[4] = Normal weight gain of rats in a subchronic 14-day experiment; format: in vivo, rat; settings: high oral doses
Source text: Finally, the compound of Example 3 had no effect, even at high oral doses, on the normal weight gain of rats in a subchronic 14-day experiment. It is evident from this that the compounds of the formula I have no appetite-stimulating action in contrast to many other antihistamines.

histamine = assay: Antagonistic action towards histamine: inhibition of histamine-induced bronchospasm in anesthetized guinea pigs (Konzett-Rössler); format: in vivo, guinea pig; settings: Cavia porcellus, iv, anesthetized guinea pigs, dose reducing induced spasm to one half; read-out: Inhibitory action towards histamine (ED50)
Protocol: as §2, §3

[5] = system: platelet activating factor (PAF); assay: Antagonism of PAF-induced bronchospasm in anesthetized rats; format: in vivo, rat; settings: Rattus norvegicus, Platelet; intravenous, anesthetized rats
Protocol: as §1

leukotriene D4 = assay: Inhibition of leukotriene D4-induced spasm in isolated guinea pig trachea; settings: leukotriene D4 10 pg/ml
[6] = system: rat peritoneal mast cells; assay: Histamine release from isolated rat mast cells induced by calcium ionophore A 23 187; format: cell-based; settings: Mast cell, 0.25 h, 15 min incubation, A 23 187 10^-6 g/ml, read-out: Inhibitory action in the Ca ionophore test IC50
Protocol: (b) Histamine release from isolated rat mast celss induced by calcium ionophore A 23 187 […] […] For this purpose, 10^4 cells were suspended in Clicks/RPMI (50:50, vol.; supplied by Serva, Heidelberg) tissue culture medium, incubated with the test substance for 15 minutes, and then treated with calcium ionophore A 23 187 at a concentration of 10^-6 g/ml. The released histamine was determined by high-pressure liquid chromatography (HPLC). The measure used for the inhibitory action was the IC50 which represents the molar concentration (mol/l) at which the induced histamine release was decreased to one half that of cells which had not been pretreated with a product. In this context, IC50 values above 10^-5 mol/l are regarded as therapeutically irrelevant.

[7] = system: asthma induced by histamine; assay: Inhibition by inhalation of allergic asthma induced by histamine in conscious guinea pigs; format: in vivo, guinea pig; settings: 0.3% strength aerosol
mast cells = assay: Passive cutaneous anaphylaxis (PCA) in the rat, inhibition of mediator release (protective effect on mast cells); format: in vivo; settings: Mast cell
Source text: (a) Passive cutaneous anaphylaxis (PCA) in the rat (PCA test) Passive cutaneous anaphylaxis is an IgE-mediated allergy of the immediate type (type I). In this model, antibodies bound to mast cells and basophilic granulocytes react with an intravenously administered antigen with release of excessive amount of the allergy mediators. The histamine which is released during this can be visualized by simultaneous application of Evans blue to the shaven flanks of the rats. Photometric evaluation of the color intensity was used to determine, by means of the percentage inhibition of mediator release compared with untreated control animals, the protective effect on mast cells of the compound according to the invention after oral administration.

Cc1cc(NCCN2CCN(C(c3ccccc3)c3ccccc3)CC2)c([N+](=O)[O-])c(C)n1.Cl.Cl.Cl [Example 3, 2,6-dimethyl-3-nitro-4-[(2-{4-diphenylmethyl-1-piperazinyl}ethyl)amino]pyridine trihydrochloride]
ED50 ([1]; Cavia porcellus): 3.15 mg/kg
time after administration to maximum effect [1]: 30 min
IC50, contractions induced by calcium ionophore A 23 187 [2]: 0.1 to 0.3 µg/mL
ED50 (bradykinin): 0.15 mg/kg
LD50 at 168 h [3]: 300 to 600 mg/kg
effect on normal weight gain [4]: no effect
ED50 (histamine): 0.3 mg/kg
ED50 [5]: 1 to 3 mg/kg
concentration inhibiting leukotriene D4-induced spasm by 50% (leukotriene D4): 3 to 6 µg/mL
IC50 [6]: 10 nM
suppression of experimentally induced asthma attacks [7]: substantial suppression
inhibition in vivo at 12.5 mg/kg (mast cells; oral dose 12.5 mg/kg): 26%
inhibition in vivo at 25 mg/kg (mast cells; oral dose 25 mg/kg): 61%
inhibition in vivo at 50 mg/kg (mast cells; oral dose 50 mg/kg): 85%
